Measured values from patent US20030229037A1, “Novel cationic amphiphiles” (priority 2000, published 2003).

Experiments:
COS-7 cells [1] = assay: Transfection of COS-7 cells with lipid/DNA lipoplexes (luciferase reporter plasmid pCMXluc), efficiency relative to DOTAP; type: cell-based, green meerkat; conditions: for relative transfection efficiency (maximum): COS-7, pCMXluc, cationic lipid/DOPE 1:1, most effective lipid/DNA ratio of 1:1 to 15:1, 48 h, RLU/µg protein based on DOTAP = 100%
Method: A transfection experiment with cationic lipids can be broken down into four different individual steps. An important prerequisite for the success of a transfection experiment is the successful preparation of liposomes from the lipids to be tested (Step 1). DNA dissolved in buffer is then added to these liposomes, forming lipid/DNA complexes called lipoplexes (Step 2). The lipoplexes are then added to the cells (Step 3). The lipoplexes mediate the uptake of the DNA in the cell. Finally, the success of a transfection is quantified by determining the quantity of gene product forms and any toxicity that may occur is quantified by measuring the quantity of total protein (Step 4).
A reporter plasmid pCMXluc containing 8,600 base pairs (provided by R. Schüle) that codes for the enzyme luciferase was used to manufacture the lipoplexes. The composition of the lipoplexes and especially the proportion of lipid/DNA [Weibel et al., 1995; Felgner et al., 1994] are critical factors for obtaining a high level of protein expression. The number of negative charges of the plasmid used (one negatively-charged phosphate group per base) and the number of positive charges caused by adding cationic liposomes were used to calculate the proportion of lipid/DNA. For polycationic lipids, the number of all amino functions contained in the head group was made equal to the number of positive charges per lipid. Eight different lipoplexes with charge ratios from 1:1 to 15:1 were manufactured for each cationic lipid. In this process, each lipoplex received the same quantity of DNA but different quantities of lipid. An overview of the model calculation of various proportions of lipid/DNA is presented below.
After the plasmid (dissolved in buffer) was added to the liposomes, a pipette was used to carefully mix the formulation. It was then allowed to stand at room temperature for 60 minutes to allow the lipoplexes to form. The ripening conditions used here to prepare lipoplexes are based on findings described earlier [Yang and Huang, 1998] and also represent the result of a systematic optimization of lipoplex ripening conditions that were determined using a simple cationic lipid and a tricationic lipid, and which were used here to prepare all lipoplexes [Regelin, 2000].
The COS-7 cell line (kidney cells from the green meerkat, fibroblast-like cells) which is often used in transfection studies [You et al., 1999; Yu et al., 1999] was used for the cell experiments. This cell line is known to be easy to transfect and grows adherently. It was therefore expected that transfection data could be matched up with all synthesized cationic lipids, and that structure/effectiveness relationships could therefore be identified. The cell experiments were carried out in 96-well microtiter plates with 5,000 cells per well. Cell density has a considerable influence on the success of a transfection experiment when COS-7 cells are used [Deshmukh and Huang, 1997]: on the one hand, cells that are sowed too densely are harder to transfect than less densely sowed cells due to their reduced tendency to divide. While it is not the intention of the applicant to be bound to any particular theory, nor to affect in any measure the scope of the appended claims, it is presently believed that the explanation lies in that plasmids pass more easily into the nucleus of dividing cells [Mortimer et al., 1999], because the […] becomes full of holes or is dissolved during cell division. On the other hand, transfections of cells that have a very low cell density are often associated with elevated cytotoxicity, because more lipoplexes are now available per cell. A moderate cell density of 40-50% confluence, at which a sufficient level of cell division is observed, was selected for the transfection experiments to be carried out as part of this work. […]

[2] = amino groups, aqueous solution; literature values; cited from earlier work
[3] = Liposome preparation (lipid film hydration, ultrasound) and size distribution by photon correlation spectroscopy; type: physicochemical; conditions: equimolar DOPE, HBS buffer pH 7.4, ultrasound bath
Method: Preferably, the cationic amphiphile and helper lipid are present in a molar mixing ratio of from about five to one to about one to five. More preferably, the cationic amphiphile and helper lipid are present in a molar mixing ratio of from about two to one to about one to two. Still more preferably, the molar mixing ratio of cationic amphiphile to helper lipid is about 1:1. To prepare liposomes, the cationic lipid to be tested and a helper lipid were dissolved in an organic solvent (e.g., chloroform/methanol mixtures).
The lipid films can be hydrated by adding buffer, which also gives rise to multilamellar vesicles (MLV). The MLV are then converted into small unilamellar vesicles (SUV) via ultrasonic treatment. [Moog, 1999; Lasic, 1994 and 1995]. The duration of exposure to ultrasound required until a homogenous population of SUV formed depended on the strength of the ultrasound bath. When a common commercial ultrasound bath was used, the process lasted 15-20 minutes. When a high performance ultrasound bath from Bandelin was used (which is also used to homogenize tissue samples) the same results were obtained after just 2 minutes. All liposomes were characterized by measuring their size distribution using photon correlation spectroscopy. In this process, the sizes of liposomes found were preferably between about 20 and about 200 nm, more preferably between about 50 and about 150 nanometers.
To make the liposome preparation, dissolve 1.29 μmol of the simple cationic lipid to be tested (bicationic: 0.645 μmol, tricationic: 0.43 μmol) in chloroform/methanol (2:1 v/v) in a test tube with an equimolar quantity of DOPE. Use the simple cationic lipid DOTAP without the addition of DOPE.
Slowly blow off the organic solvent with a TCS sample preparation system (Vapotherm, BARLEY, Bielefeld, Germany) using nitrogen (30-60 minutes) at room temperature. The dried lipid films can be stored for many months at −20° C. […]

COS-7 cells [4] = assay: Total protein quantity per well (BCA test) as measure of cytotoxicity of the lipoplexes; type: cell-based, green meerkat; conditions: COS-7, lipid/DOPE 1:1 lipoplexes, 48 h
Method: 48 hours after the lipoplexes were added, the medium was removed and the cells were washed, because the medium would interfere with the tests to determine the transfection data. The cells were then lysed in order to make a homogeneous cell protein solution. The lysate of every single well was distributed and the total quantity of protein and the luciferase activity were determined in independent assays.
The total protein quantity was determined using the BCA test with bovine serum albumin as the standard and indicated in the unit μg/well. The protein quantity measured correlates with the number of adherent, living cells still present after transfection and can therefore be used as a measure of toxicity of the respective lipoplexes [Gao and Huang, 1991]. Comparisons of the protein quantities measured with results from cytotoxicity assays that were performed [Regelin, 2000] verify this relationship. The measured values were used in the calculation of transfection efficiency (see below).
Remove the supernatant medium completely, wash the cells once with a 0.9% NaCl solution, then add 50 μl lysis buffer (ROCHE, Germany) per well. […] Use a BCA test (PIERCE, Rockford, USA) to determine the quantity of total protein per well. […] Determine the protein concentration using the calibration curve in the spectral photometer (Spectra, TECAN, Germany) by quantifying the absorption at λ=550 nm.

Compound	liposome formation in mixture with DOPE [3]	relative transfection efficiency (maximum) (COS-7 cells [1])	further results
CCCCCCCC/C=C\CCCCCCCC(=O)OCC(C[N+](C)(C)C)OC(=O)CCCCCCC/C=C\CCCCCCCC.[Cl-] (stereo not shown) [DOTAP, N-[1-(2,3-dioleoyloxy)propyl]-N,N,N-trimethylammoniumchloride, reference compound]			transfection efficiency of the standard lipid (defined as 100%) (COS-7 cells [1]; DOTAP without DOPE, lipid/DNA 2.5:1, COS-7, external standard in each microtiter plate): 100%
NCCCCNCCCN [Spermidine]			pKa [2]: above 8
CCCCCCCCCCCCCCOCC(COC(=O)CN(C)C)OCCCCCCCCCCCCCC (stereo not shown) [compound 110]	formed no liposomes	only very low transfection efficiencies	
CCCCCCCCCCCCCCOCC(COC(=O)C[N+](C)(C)C)OCCCCCCCCCCCCCC (stereo not shown) [compound 111]	used successfully in a mixture with DOPE to prepare liposomes	83%	
CC(C)CCC[C@@H](C)[C@H]1CC[C@H]2[C@@H]3CC=C4C[C@@H](OC(=O)CN(C)C)CC[C@]4(C)[C@H]3CC[C@]12C [lipid 4, N-Cholesteryloxycarbonylmethyl-N,N-dimethylamine]	liposomes could not be prepared	did not result in a single transfection	cytotoxicity of the lipoplexes (total protein quantity) (COS-7 cells [4]): No cytotoxicity was observed
CCCCCCCCCCCCCCOCC(COC(=O)CNCCCCNCCCN)OCCCCCCCCCCCCCC.O=CO (stereo not shown) [lipid 115, 10-((2,3-di-tetradecyloxy)-propyloxcarbonylmethyl)-1,5,10-triazadekan formic acid salt]		135%	
CN(C)C [trimethylamine]			pKa [2]: ~10
Lipid A		approx. 300%	cytotoxicity of the lipoplexes (total protein quantity) (COS-7 cells [4]): do not exhibit elevated cytotoxicities
